Publication PMC12172326 (Journal of Biomedical Science, 2025)
Values belong to the compound of their own block, whether it stands above or below them.

Key:
SALL4 = SALL4 degradation, Western blot in Tera-1 cells; assay type: cell-based, human; details: 4 h, 0.1 to 10 μM, SALL4/GAPDH, read-out: IC50 to lower SALL4 protein expression
Protocol: (§1) This cell line was obtained from the Korean Cell Line Bank (catalog no. 30105; Seoul, Korea), grown in DMEM (supplemented with 10% FBS, penicillin 100 U/mL and streptomycin 100 μg/mL, and maintained at 37 °C and 5% CO2). […] These were grown in RPMI media supplemented with 10% FBS, penicillin 100 U/mL, and streptomycin […], and maintained at 37 °C and 5% CO2. MM.1S cells were treated with drug (0.1 to 10 μM) for 4 h, and their cell lysates were prepared for Western blot analysis, as described previously.
(§2) For Western blot analysis, total proteins were extracted using RIPA buffer (Thermo Fisher Scientific, Waltham, MA) containing Halt Protease Inhibitor Cocktail (Thermo Fisher Scientific). Thereafter, proteins were separated by gel electrophoresis and then transferred to polyvinylidene difluoride (PVDF) membranes (Thermo Fisher Scientific), as detailed previously. The following primary antibodies were used: (i) anti-SALL4 antibody (catalog no. ab29112; 1:1000; Abcam, UK); (ii) anti-Aiolos antibody (catalog no. 15103; 1:1000; Cell Signaling Technology, Danvers, MA, USA); and (iii) anti-GAPDH antibody (catalog no. ab8245; 1:5000; Abcam, Cambridge, UK). […] Antigen–antibody complexes were detected using enhanced chemiluminescence (Thermo Fisher Scientific, iBright CL1500).

Aiolos = Aiolos degradation, Western blot in MM.1S cells; assay type: cell-based, human; details: 4 h, 0.1 to 10 μM, Aiolos/GAPDH, read-out: IC50 to lower Aiolos protein expression
Protocol: as §1, §2

p-glycoprotein = tested on: p-glycoprotein; set-up: method as in PMID 21825263; details: cited from earlier work
[1] = cited from earlier work
[2] = ex vivo stability in human plasma; assay type: in vitro ADME; details: 100 μg/ml, room temperature, 0-180 min
Protocol: (§3) An ex vivo evaluation of drug stability was conducted in mouse and human plasma samples (WuXi AppTec, Shanghai, China). […] Samples were, thereafter, incubated at room temperature for 0, 15, 30, 60, 120, and 180 min before immediate drug extraction. […] Extraction was performed by adding ethyl acetate containing the internal standard (donepezil—known to undergo first-pass hepatic metabolism) to the spiked sample (100 μL), vortexed for 1 min, and centrifuged at 13,000 rpm, 4 °C for 10 min. The supernatant was used for LC–MS/MS analysis.
(§4) LC–MS/MS analysis was performed with a Vanquish Flex UHPLC (Thermo Scientific) and a Orbitrap Exploris 240 mass spectrometer (Thermo Scientific). Samples were separated on a C18 UHPLC column (100 mm × 2.1 mm, 3 μm; Thermo Scientific). The mobile phase A for LC separation was 0.1% formic acid and the mobile phase B was 0.1% formic acid in methanol. The chromatography gradient was designed for a linear increase from 5% B in 1 min, 5% B to 95% B in 8 min, 95% B in 3 min, and 5% B in 3 min. The flow rate was maintained at 0.3 mL/min. Mass spectra were acquired using the data-dependent Top 4 MS2 (ddMS2) method with a mass scan (100–1000 m/z) and 120,000 MS resolution.

[3] = ex vivo stability in mouse plasma; assay type: in vitro ADME; details: 100 μg/ml, room temperature, 0-180 min
Protocol: as §3, §4

IC50 (SALL4): 40 nM
IC50 (Aiolos): 60 nM
SMILES: Nc1cccc2c1C(=O)N(C1CCC(=O)NC1=O)C2=O (stereo not drawn) [Pom, Pomalidomide]

SMILES: Nc1cccc2c1CN(C1CCC(=O)NC1=O)C2=O (stereo not drawn) [Lenalidomide]
substrate for the efflux transporter p-glycoprotein (p-glycoprotein): substrate
CSF/plasma ratio [1]: 0.11

ex vivo stability in human plasma [2]: rapidly disappears
ex vivo stability in mouse plasma [3]: rapidly disappears
SMILES: Nc1cccc2c1C(=S)N(C1CCC(=S)NC1=O)C2=O (stereo not drawn) [3,6′-DTP, 3,6′-dithiopomalidomide, reference compound]
